1 substance from paper PMC6349357, “Computational and experimental analysis of bioactive peptide linear motifs in the integrin adhesome” (PLoS ONE, 2019) can be followed below.

In one assay the test system is resting platelets. In words: Platelet aggregation induced by peptide in resting washed platelets (activation). It is filed as cell-based, human (healthy volunteers). The method, boiled down:
(§1)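 Washed human platelets (from ACD blood, PGE1-treated) were used at 3x10^5/μl in buffer A pH 7.4 with 1.8 mM CaCl2. Light-transmission aggregometry ran at 37°C with stirring at 1100 rpm. Peptide or buffer was added at 2 min, TRAP 6 min later, and aggregation was recorded for a further 7 min.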

A further assay relates to TRAP-activated platelets. In words: Inhibition of TRAP-induced platelet aggregation after pre-incubation with peptide. It is filed as cell-based, human (healthy volunteers). In short, it runs like this: as §1
Another assay has as its target T1, vinculin in HeLa cells (Homo sapiens, UniProt P18206).
T1 construct: endogenous in cells; host or cells: HeLa
T1 sequence (P18206 1-1066 isoform P18206-2): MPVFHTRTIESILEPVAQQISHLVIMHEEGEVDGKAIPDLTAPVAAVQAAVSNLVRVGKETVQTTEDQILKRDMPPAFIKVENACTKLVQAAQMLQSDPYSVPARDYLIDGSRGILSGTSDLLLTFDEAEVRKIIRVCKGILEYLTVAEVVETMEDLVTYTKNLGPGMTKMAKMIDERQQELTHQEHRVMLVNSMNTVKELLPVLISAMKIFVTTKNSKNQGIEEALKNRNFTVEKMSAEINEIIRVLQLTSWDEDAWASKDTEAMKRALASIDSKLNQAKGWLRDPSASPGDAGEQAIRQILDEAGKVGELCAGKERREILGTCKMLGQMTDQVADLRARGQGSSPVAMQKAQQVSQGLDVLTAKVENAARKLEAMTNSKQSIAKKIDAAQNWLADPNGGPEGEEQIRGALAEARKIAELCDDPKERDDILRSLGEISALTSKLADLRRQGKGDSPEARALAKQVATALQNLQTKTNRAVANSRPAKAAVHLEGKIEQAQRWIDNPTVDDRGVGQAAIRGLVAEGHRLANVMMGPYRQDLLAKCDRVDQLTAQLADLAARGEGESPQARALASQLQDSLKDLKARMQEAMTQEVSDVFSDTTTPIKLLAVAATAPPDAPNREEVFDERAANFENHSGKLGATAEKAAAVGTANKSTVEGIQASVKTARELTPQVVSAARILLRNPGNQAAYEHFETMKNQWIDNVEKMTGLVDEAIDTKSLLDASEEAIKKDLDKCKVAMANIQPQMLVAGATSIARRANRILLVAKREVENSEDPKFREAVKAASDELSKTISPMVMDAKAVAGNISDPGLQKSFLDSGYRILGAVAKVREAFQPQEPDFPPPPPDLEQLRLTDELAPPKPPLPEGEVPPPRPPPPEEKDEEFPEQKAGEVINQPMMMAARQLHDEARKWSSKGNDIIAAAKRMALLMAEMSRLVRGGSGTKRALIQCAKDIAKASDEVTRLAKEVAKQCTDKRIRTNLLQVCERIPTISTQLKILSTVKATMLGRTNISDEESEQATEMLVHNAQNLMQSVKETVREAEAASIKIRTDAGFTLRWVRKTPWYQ
In words: Co-localization of 5FAM-labeled peptide with vinculin in HeLa cells (microscopy). It is filed as cell-based. Conditions: 15 μM, 5-15 minutes. As for the experimental part:
(§2) HeLa cells were seeded on a 24-well plate with inserted coverslips at a density of 30000 cells/well. After 24h the cells were treated with 15 μM peptide for the desired amount of time (5, 10, 15 minutes). Cells were then fixed in 3% paraformaldehyde (PFA, Sigma) for 20 minutes and permeabilized with 0.1% Triton X-100 (Sigma) for 5 minutes at room temperature. Cells were then washed 3 times with PBS and stained with antibodies. Staining with primary antibody (paxillin/vinculin (Abcam)) was performed for 30 minutes, followed by three PBS washes and secondary staining using goat anti-mouse Alexa 568 antibody (Life Technologies) for 30 minutes. Then the nuclei were stained with 0.2 μg/ml Hoechst33342, the coverslips were thoroughly washed with PBS and mounted on glass slides with Mowiol mounting medium. The slides were then imaged on a FluoView FV1000 laser scanning microscope (Olympus) with 60x UPLSAPO 1.35NA (Olympus) oil immersion objective.

For another assay, the target named is T2, paxillin in HeLa cells (Homo sapiens, UniProt P49023).
T2 construct: endogenous in cells; host or cells: HeLa
In words: Co-localization of 5FAM-labeled peptide with paxillin in HeLa cells (microscopy). It is filed as cell-based. Particulars: 15 μM, 5-15 minutes. On the procedure: as §2

Marks after values point to notes of the source that are not given here.

T2 sequence (P49023 whole entry): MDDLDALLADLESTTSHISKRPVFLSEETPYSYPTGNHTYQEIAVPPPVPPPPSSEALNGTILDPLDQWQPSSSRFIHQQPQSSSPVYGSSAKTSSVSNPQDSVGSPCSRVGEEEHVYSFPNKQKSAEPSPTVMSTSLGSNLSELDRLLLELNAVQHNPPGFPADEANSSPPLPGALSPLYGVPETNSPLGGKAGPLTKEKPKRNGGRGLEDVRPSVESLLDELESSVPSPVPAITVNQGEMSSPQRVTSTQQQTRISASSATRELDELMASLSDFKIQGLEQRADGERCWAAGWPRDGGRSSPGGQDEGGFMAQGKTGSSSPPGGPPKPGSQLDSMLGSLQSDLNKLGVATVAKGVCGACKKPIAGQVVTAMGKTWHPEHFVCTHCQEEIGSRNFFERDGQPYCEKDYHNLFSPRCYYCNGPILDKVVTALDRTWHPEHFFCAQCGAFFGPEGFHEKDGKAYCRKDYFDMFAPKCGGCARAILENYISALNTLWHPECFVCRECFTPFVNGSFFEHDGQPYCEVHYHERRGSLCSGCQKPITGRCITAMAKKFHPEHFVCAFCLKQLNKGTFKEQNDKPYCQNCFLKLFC

In the case of “tat-WEQLLTTIARTINEVENQI-(NH2) [tat-ACTN1_VBS]”, the Platelet activation, donor 14 06 13 in the assay on resting platelets (Fig S10 sheet, replicate 14_06_13, peptide 50 µM, unit assumed) came out at 68%. Besides, the Platelet activation, donor 18 06 13 in the assay with resting platelets (Fig S10 sheet, replicate 18_06_13, peptide 50 µM, unit assumed) worked out at 73%. In the assay on resting platelets (Fig S10 sheet, replicate 22_08_13_DONOR1, peptide 50 µM, unit assumed), this substance registered a Platelet activation, donor 22 08 13 DONOR1 of 59%. For the same substance, in the assay with resting platelets (Fig S10 sheet, replicate 22_08_13_DONOR2, peptide 50 µM, unit assumed), the Platelet activation, donor 22 08 13 DONOR2 was found to be 41%. Moreover, the Activation with resting platelets (platelet aggregation in resting platelets after 6 minutes incubation with peptide, pal-peptides 20 μM, tat-peptides 50 μM, optical density, aggregometer, mean, n>=3) is 66 ^*. Besides, the “Aggregation before TRAP activation, donor e” value in the assay on resting platelets (replicate donor e, pal 20 μM, tat 50 μM) is reported as 73. Also, in the assay on resting platelets (replicate donor k, pal 20 μM, tat 50 μM), the “Aggregation before TRAP activation, donor k” value was 59. Moreover, the “Aggregation before TRAP activation, donor l” value with resting platelets (replicate donor l, pal 20 μM, tat 50 μM) is given as 68. The “Aggregation after TRAP, peptide alone 1x (A 1x / B 1x)” value in the assay on TRAP-activated platelets (TRAP 2 μM after 6 minutes pre-incubation, 4 μM pal-peptides, 10 μM tat-peptides, mean n = 3) was 68.33. The “Aggregation after TRAP, peptide alone 2x (A 2x / B 2x)” value in the assay on TRAP-activated platelets (TRAP 2 μM after 6 minutes pre-incubation, double concentration of 4 μM (pal) / 10 μM (tat), mean n = 3) is 68.67. Besides, in the assay with TRAP-activated platelets (platelet aggregation induced by 4 μM TRAP in platelets pre-incubated with peptide (low value = inhibition), pal-peptides 20 μM, tat-peptides 50 μM, mean, n>=3), the “Platelet aggregation after TRAP activation” value is recorded as 61 ^*. In addition, in the assay on TRAP-activated platelets (replicate donor e, TRAP 4 μM, pal 20 μM, tat 50 μM), the “Aggregation after TRAP activation, donor e” value turned out to be 66. The “Aggregation after TRAP activation, donor k” value in the assay on TRAP-activated platelets (replicate donor k, TRAP 4 μM, pal 20 μM, tat 50 μM) is given as 51. The “Aggregation after TRAP activation, donor l” value in the assay with TRAP-activated platelets (replicate donor l, TRAP 4 μM, pal 20 μM, tat 50 μM) came out at 68. Further, the Co-localization with vinculin entry on vinculin in HeLa cells is recorded as “co-localized with vinculin”. For the same substance, the Co-localization with paxillin result at paxillin in HeLa cells is “did not co-localize”.
